ChEMBL document CHEMBL1909046, “DrugMatrix in vitro pharmacology data”

Experiments:
[1] = target: Beta-1 adrenergic receptor (Homo sapiens, UniProt P08588); test: DRUGMATRIX: Adrenergic beta1 radioligand binding (ligand: [125I] Cyanopindolol); type: cell membranes, CHO-K1, Membrane; conditions: cho-k1; Not Active = under 50% inhibition at 10 µM
[2] = target: T1, C-X-C chemokine receptor type 2 (Homo sapiens, UniProt P25025); type: cell membranes, Membrane; conditions: cho-k1; also: in other assays of this panel Not Active means under 50% inhibition at 10 µM
T1 sequence (P25025 whole entry): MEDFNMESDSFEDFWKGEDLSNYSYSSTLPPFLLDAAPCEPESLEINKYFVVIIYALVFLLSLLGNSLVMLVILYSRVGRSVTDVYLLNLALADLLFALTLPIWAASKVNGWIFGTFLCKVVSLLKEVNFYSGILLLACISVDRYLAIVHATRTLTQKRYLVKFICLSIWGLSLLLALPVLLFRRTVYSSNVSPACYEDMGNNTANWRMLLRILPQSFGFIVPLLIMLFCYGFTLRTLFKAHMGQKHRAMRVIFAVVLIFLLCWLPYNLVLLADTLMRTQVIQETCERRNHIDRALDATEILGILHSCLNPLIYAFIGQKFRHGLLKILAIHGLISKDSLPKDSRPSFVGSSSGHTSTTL

[3] = target: Tyrosine-protein kinase Lck (Homo sapiens, UniProt P06239); test: DRUGMATRIX: Protein Tyrosine Kinase, LCK enzyme inhibition (substrate: Poly(Glu:Tyr)); type: cell-based, Insect cells; conditions: insect cells; Not Active = under 50% inhibition at 10 µM
[4] = target: T2, Cathepsin G (Homo sapiens, UniProt P08311); type: tissue-based; conditions: neutrophil;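 also: inhibition of Cathepsin G enzyme activity, tested on an AMC-conjugated peptide substrate; in other assays of this panel Not Active means under 50% inhibition at 10 µM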
T2 sequence (P08311 whole entry): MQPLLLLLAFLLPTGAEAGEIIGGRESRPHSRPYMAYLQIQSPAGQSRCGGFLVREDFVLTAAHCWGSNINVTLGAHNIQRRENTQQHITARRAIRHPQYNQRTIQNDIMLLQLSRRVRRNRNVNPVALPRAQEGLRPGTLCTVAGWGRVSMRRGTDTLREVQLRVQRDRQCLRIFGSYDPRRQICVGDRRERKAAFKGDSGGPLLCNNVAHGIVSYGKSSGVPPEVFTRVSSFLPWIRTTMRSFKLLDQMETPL

[5] = target: Acetylcholinesterase (Homo sapiens, UniProt P22303); test: DRUGMATRIX: Acetylcholinesterase enzyme inhibition (substrate: acetylthiocholine); type: cell-based, HEK293; conditions: hek293; Not Active = under 50% inhibition at 10 µM
[6] = target: Mitogen-activated protein kinase 14 (Homo sapiens, UniProt Q16539); set-up: species or system Escherichia coli;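 also: inhibition of p38alpha enzyme activity in a biochemical kinase assay, with myelin basic protein serving as substrate; in other assays of this panel Not Active means under 50% inhibition at 10 µM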
[7] = target: D(1A) dopamine receptor (Homo sapiens, UniProt P21728); test: DRUGMATRIX: Dopamine D1 radioligand binding (ligand: [3H] SCH-23390); type: cell membranes, Membrane; conditions: cho; Not Active = under 50% inhibition at 10 µM

Measured: IC50

Chain of Beta-1 adrenergic receptor (P08588 whole entry): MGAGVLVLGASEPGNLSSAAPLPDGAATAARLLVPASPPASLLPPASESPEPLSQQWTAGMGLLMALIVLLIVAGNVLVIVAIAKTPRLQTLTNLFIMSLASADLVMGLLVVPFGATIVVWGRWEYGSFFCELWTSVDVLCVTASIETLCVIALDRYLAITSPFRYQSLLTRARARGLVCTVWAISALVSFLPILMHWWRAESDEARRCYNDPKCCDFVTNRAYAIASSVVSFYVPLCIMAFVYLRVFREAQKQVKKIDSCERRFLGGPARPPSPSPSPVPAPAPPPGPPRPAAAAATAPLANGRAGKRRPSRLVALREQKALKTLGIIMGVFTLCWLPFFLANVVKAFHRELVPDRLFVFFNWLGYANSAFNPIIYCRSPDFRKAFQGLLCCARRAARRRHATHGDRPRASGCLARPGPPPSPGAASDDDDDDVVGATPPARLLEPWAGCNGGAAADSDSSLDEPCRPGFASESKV
Chain of Acetylcholinesterase (P22303 whole entry): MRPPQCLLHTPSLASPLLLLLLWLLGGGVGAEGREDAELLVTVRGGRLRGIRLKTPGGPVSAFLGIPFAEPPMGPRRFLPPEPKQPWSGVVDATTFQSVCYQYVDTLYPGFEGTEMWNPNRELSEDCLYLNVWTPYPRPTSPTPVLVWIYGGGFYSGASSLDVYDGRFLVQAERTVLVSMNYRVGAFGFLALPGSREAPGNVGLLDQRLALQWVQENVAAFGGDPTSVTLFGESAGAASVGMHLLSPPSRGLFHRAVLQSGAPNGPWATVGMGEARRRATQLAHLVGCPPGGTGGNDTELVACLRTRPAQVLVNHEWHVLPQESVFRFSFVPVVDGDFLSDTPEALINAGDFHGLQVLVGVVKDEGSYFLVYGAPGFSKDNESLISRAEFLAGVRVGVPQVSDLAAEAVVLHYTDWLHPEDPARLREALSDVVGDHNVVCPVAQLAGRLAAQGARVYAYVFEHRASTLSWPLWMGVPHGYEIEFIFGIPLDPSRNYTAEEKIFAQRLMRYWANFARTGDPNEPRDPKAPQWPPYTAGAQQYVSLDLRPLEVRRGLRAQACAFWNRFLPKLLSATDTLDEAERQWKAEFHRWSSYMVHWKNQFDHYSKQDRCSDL
Chain of D(1A) dopamine receptor (P21728 whole entry): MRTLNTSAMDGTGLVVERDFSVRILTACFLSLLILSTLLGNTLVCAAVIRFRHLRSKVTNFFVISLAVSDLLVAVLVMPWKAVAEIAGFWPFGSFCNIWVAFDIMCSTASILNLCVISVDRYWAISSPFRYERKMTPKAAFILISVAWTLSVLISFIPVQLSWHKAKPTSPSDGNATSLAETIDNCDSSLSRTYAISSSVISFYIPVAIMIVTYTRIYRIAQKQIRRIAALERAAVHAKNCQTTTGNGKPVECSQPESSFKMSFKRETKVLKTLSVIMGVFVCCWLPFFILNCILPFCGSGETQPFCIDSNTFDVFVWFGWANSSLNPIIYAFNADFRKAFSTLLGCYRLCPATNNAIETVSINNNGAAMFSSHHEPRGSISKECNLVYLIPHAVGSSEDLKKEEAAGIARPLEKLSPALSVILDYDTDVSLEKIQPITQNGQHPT
Chain of Mitogen-activated protein kinase 14 (Q16539 whole entry): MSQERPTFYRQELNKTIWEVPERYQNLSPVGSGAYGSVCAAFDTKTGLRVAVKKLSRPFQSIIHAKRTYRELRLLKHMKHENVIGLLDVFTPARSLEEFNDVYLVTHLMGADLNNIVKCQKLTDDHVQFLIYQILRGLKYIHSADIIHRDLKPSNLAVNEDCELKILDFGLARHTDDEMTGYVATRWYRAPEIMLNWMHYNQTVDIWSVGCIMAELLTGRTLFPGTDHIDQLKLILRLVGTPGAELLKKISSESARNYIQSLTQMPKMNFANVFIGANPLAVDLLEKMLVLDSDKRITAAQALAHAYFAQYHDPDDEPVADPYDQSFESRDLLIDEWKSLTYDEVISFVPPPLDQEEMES
Chain of Tyrosine-protein kinase Lck (P06239 whole entry): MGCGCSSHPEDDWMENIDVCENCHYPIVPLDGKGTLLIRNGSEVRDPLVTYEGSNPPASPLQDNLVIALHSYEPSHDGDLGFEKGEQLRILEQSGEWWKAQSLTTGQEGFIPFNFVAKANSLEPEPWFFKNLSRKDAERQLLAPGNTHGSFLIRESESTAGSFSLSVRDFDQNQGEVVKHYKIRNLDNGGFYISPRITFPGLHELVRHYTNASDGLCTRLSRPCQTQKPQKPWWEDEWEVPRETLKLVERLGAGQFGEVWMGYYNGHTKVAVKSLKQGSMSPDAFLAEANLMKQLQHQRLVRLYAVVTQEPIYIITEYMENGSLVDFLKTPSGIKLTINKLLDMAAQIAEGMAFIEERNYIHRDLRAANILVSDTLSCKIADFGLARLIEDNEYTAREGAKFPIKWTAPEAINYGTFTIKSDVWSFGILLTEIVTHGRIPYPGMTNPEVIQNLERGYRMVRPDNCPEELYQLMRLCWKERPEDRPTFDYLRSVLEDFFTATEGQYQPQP

Cc1cc2cc3c(C)cc(=O)oc3c(C)c2o1 [TRIOXSALEN]
Not Active: all assays above

Cc1ncc([N+](=O)[O-])n1CCO [METRONIDAZOLE]
Not Active: all assays above

OC(CCN1CCCCC1)(c1ccccc1)C1CCCCC1 (stereo not drawn) [TRIHEXYPHENIDYL]
Not Active: all assays above

O=C(C1CCCCC1)N1CC(=O)N2CCc3ccccc3C2C1 (stereo not drawn) [PRAZIQUANTEL]
Not Active: all assays above

C=C1CC[C@H](O)C/C1=C/C=C1\CCC[C@]2(C)[C@@H]([C@H](C)CCCC(C)C)CC[C@@H]12 [CHOLECALCIFEROL]
Not Active: all assays above

CC(=O)OCC(=O)[C@@]1(O)CC[C@H]2[C@@H]3CCC4=CC(=O)CC[C@]4(C)[C@H]3C(=O)C[C@@]21C [CORTISONE ACETATE]
Not Active: all assays above

COc1ccc2[nH]c([S+]([O-])Cc3ncc(C)c(OC)c3C)nc2c1 (stereo not drawn) [OMEPRAZOLE]
Not Active: all assays above

C[C@@]12C(=O)OC(=O)[C@]1(C)[C@H]1CC[C@@H]2O1 [CANTHARIDIN]
Not Active: all assays above

Nc1c(CC(=O)O)cccc1C(=O)c1ccc(Br)cc1 [BROMFENAC]
Not Active: all assays above

C[C@H]1O[C@@H](O[C@H]2[C@@H](O)C[C@H](O[C@H]3[C@@H](O)C[C@H](O[C@H]4CC[C@@]5(C)[C@H](CC[C@@H]6[C@@H]5CC[C@]5(C)[C@@H](C7=CC(=O)OC7)CC[C@]65O)C4)O[C@@H]3C)O[C@@H]2C)C[C@H](O)[C@@H]1O [DIGITOXIN]
Not Active: all assays above

C[N+](C)(C)CCO.[Cl-] [CHOLINE CHLORIDE]
Not Active: all assays above

O=S(=O)([O-])CCS.[Na+] [MESNA]
Not Active: all assays above

O=C(O)Cc1ccccc1Nc1c(Cl)cccc1Cl [DICLOFENAC]
Not Active: all assays above

CCC1=C[C@@H]2CN(C1)Cc1c([nH]c3ccccc13)[C@@](C(=O)OC)(c1cc3c(cc1OC)N(C)[C@H]1[C@@](O)(C(=O)OC)[C@H](OC(C)=O)[C@]4(CC)C=CCN5CC[C@]31[C@@H]54)C2 [VINORELBINE]
Not Active: all assays above
